The conditions of this data set: 101.33 kPa, Liquid, Vibrating tube method.

From the NIST ThermoML archive (doi:10.1021/je201301b) come the findings set out here.

Structures are written as SMILES. Numbers after ± are expanded uncertainties.

By mass density is commonly meant mass per unit of volume. On to `CCCCCCOCn1cc[n+](COCCCCCC)c1.O=S(=O)([N-]S(=O)(=O)C(F)(F)F)C(F)(F)F`, for which the mass density runs as follows: (298.15 K) 1254.89 ± 3.9 kg/m3; (308.15 K) 1246.07 ± 3.9 kg/m3; (318.15 K) 1237.28 ± 3.8 kg/m3; (328.15 K) 1228.51 ± 3.8 kg/m3; (338.15 K) 1219.66 ± 3.7 kg/m3; (348.15 K) 1210.87 ± 3.7 kg/m3.
On to `CCCCCCOCn1cc[n+](C)c1.F[B-](F)(F)F` [1-hexyloxymethyl-3-methylimidazolium tetrafluoroborate], for which the mass density (298.15 K) turned out to be 1153.1 ± 3.3 kg/m3; the mass density (308.15 K) came to 1145.76 ± 3.2 kg/m3; the mass density (318.15 K) stood at 1138.71 ± 3.2 kg/m3; the mass density (328.15 K) is 1131.65 ± 3.2 kg/m3; the mass density (338.15 K) is 1124.63 ± 3.1 kg/m3; the mass density (348.15 K) stood at 1117.63 ± 3.1 kg/m3.
